Literature values in patent US20050232985A1, “Ciprofloxacin hcl” (priority 2002, published 2005).
Structures can show the parent of a compound that is named as a salt.

Assays:
[1] = tested on: Pseudomonas aerugenosa, golden yellow Staphylococcus and Streptococcus pneumoniae
[2] = tested on: Excherichia Coli, Klebsiella SPP., and other Enterobacter SPP., Bacillus—negative

O=C(O)c1cn(C2CC2)c2cc(N3CCNCC3)c(F)cc2c1=O [Ciprofloxacin Hydrochloride, I-cyclopropyl-6-fluoro-1,4-dihydro-4-oxo-7-(I-piperazinyl)-3-quinolinecarboxylic acid]
antibacterial action versus Penicillin kinds of antibiotic (Streptococcus SPP.): less than Penicillin kinds of antibiotic
antibacterial action versus Norfloxacin and Peifloxacin [1]: better than other known derivatives
antibacterial activity [2]: wide range antibacterial activity
